Experimental data reported in patent publication US4542137A, “Alkylaminodesoxy-1.4;3.6-dianhydrohexitol nitrates substituted by purine bases and pharmaceutical compositions” (priority 1980, dated 1985).
Read-outs that look alike come from different tables or passages of the source.

Tests used:
[1] = system: isolated guinea pig hearts; assay: coronary flowthrough-increasing effectiveness on isolated guinea pig hearts according to Langendorff; settings: Cavia porcellus, 25 μg/ml in tyrode solution, Langendorff heart; for activation at 25 µg/mL: read-out: flowthrough (coronary), percentage change in comparison with the initial value
Procedure: After achieving the stationary state in the 30th minute, the hearts were each infused with 50 ml. tyrode solution with a content of test substance of, in each case, 25 μg./ml. Each test substance was tested on 3-6 hearts.
In each case, there was measured the inotropism, the flowthrough and the frequency, whereby the values given in Table I are average values of the percentage changes in comparison with the starting values.

[2] = system: isolated rat aorta preparations; assay: spasmolytic effectiveness on isolated rat aorta preparations (noradrenaline- and potassium chloride-induced contractions)
[3] = read-out: frequency, percentage change in comparison with the initial value
[4] = read-out: inotropism, percentage change in comparison with the initial value
[5] = read-out: ED50 for spasmolytic action, Noradrenaline spasm (50% inhibition)
[6] = read-out: ED50 for spasmolytic action, potassium chloride spasm (50% inhibition)

| Compound | activation at 25 µg/mL [1] [%] | percent change from initial value at 25 µg/mL [1, 3] [%] | inhibition at 25 µg/mL [1, 4] [%] | IC50 [2, 5] [µM] | IC50 [2, 6] [µM] | inhibition at 25 µg/mL [1, 3] [%] |
| --- | --- | --- | --- | --- | --- | --- |
| CN(CCCn1cnc2c1c(=O)n(C)c(=O)n2C)[C@H]1CO[C@H]2[C@@H]1OC[C@@H]2O[N+](=O)[O-] [Example 9c, 5-[N-Methyl-N-(3-theophyllin-7-ylpropyl)-amino]-5-desoxy-1.4;3.6-dianhydro-L-iditol 2-nitrate] | 40.5 | 0 | 4.3 | 2.95 | 45.9 | – |
| Cn1c(=O)c2c(ncn2CCCN[C@H]2CO[C@H]3[C@@H]2OC[C@@H]3O[N+](=O)[O-])n(C)c1=O [Example 1d, 5-(3-Theophyllin-7-ylpropyl)-amino-5-desoxy-1.4;3.6-dianhydro-L-iditol 2-nitrate] | 56.4 | – | 1.29 | 0.56 | 2.9 | 1.95 |
